# Patent EP3733658B1, “PRENYLATED BENZOPYRANES AS PPAR AGONISTS” (Universitat de València, priority 2017, dated 2019)
# What was measured:
# RXRα/PPARγ interaction = target: T1, RXRα/PPARγ interaction (Homo sapiens, UniProt P37231); assay: Immunoprecipitation of PPARγ followed by Western blot for RXRα in HUVEC; assay type: cell-based; details: pretreated HUVEC
# T1 construct: endogenous in cells; host or cells: HUVEC
# T1 sequence (P37231 29-505 limits assumed): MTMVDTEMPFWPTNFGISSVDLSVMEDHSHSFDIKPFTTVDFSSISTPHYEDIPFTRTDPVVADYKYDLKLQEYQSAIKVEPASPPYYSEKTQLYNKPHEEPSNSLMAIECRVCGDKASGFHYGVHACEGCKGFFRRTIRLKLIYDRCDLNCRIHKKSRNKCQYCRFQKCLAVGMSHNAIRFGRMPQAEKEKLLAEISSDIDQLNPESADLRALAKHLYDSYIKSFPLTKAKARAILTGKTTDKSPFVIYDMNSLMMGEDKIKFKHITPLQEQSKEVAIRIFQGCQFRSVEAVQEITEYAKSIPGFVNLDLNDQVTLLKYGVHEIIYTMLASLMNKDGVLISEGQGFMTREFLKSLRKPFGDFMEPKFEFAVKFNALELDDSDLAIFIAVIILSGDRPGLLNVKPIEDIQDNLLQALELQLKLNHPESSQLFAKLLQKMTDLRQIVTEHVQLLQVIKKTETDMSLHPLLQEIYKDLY
# T1 sequence (P19793 1-462 partner): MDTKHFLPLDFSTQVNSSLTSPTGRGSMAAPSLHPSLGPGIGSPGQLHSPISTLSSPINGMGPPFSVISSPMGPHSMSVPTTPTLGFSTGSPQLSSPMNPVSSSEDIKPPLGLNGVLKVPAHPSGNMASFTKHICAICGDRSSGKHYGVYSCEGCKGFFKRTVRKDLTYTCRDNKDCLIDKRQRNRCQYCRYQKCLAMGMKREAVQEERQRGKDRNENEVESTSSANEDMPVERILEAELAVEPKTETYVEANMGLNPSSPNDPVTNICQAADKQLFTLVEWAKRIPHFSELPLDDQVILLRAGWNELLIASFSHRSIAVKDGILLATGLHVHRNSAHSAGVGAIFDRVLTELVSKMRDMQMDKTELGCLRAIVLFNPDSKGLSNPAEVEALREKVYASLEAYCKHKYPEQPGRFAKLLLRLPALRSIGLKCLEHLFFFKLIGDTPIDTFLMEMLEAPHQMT
# Experimental: For the immunoprecipitation, the protein extracts were obtained in 50 mM Tris-HCl (pH 8), 150 mM NaCl, 1% Nonidet P-40 and protease (1 mM PMSF, 40 µg/mL aprotinin and 40 µg/mL leupeptin) and phosphatase inhibitors. Then the protein extracts (~200 µg) were incubated with 5 µg of an antibody against PPARγ. Immunocomplexes were precipitated using an anti-rabbit IgG beads (cat# 8800, eBioscience, San Diego, CA) and suspended in a sample buffer with 50 mM dithiotreitol (DTT). Western blot was performed with an antibody against RXRα and the membranes were incubated with the secondary HRP-conjugate Rabbit TrueBlot (eBioscience, San Diego, CA) as secondary antibody. Chemoluminescence signals were developed with ECL (GE Healthcare, Madrid, Spain).
# [1] = system: mononuclear cell adhesion induced by TNFα; assay: Mononuclear cell adhesion to TNFα-stimulated HUVEC transfected with control or RXRα, PPARα, PPARγ specific siRNA; assay type: cell-based, human; details: 20 h
# [2] = Treatment of ob/ob mice: body weight gain and feed efficiency; details: oral, 4 days
# Excerpt: Protocols conforming to European Union guidelines for the care and protection of animals were approved by the Ethics Committee of the University of Valencia. All efforts were made to minimize the number of animals used and their suffering. ob/ob mice have a leptin deficiency, and are associated with hyperphagia and obesity, as well as hyperglycemia and hyperinsulinemia. This study used male ob/ob mice (C57BU6J) (Charles River laboratories, Chatillon-sur-Chalaronne, France).
# The mice were housed in individual cages in a room with controlled temperature, humidity and light. […] The mice were allowed to acclimate for ten days prior to the study.
# The control ob/ob mice were just administered with vehicle (physiological saline solution with HEC 1%). […] The compounds were prepared freshly each day in a 1% suspension of HEC for oral administration. Randomization was performed based on the glycaemia values on day 0. For the duration of the experiment the amount of food ingested and the body weight were determined daily for each mouse. Every day between 9:00 and 11:00 a.m. (prior to treatment) blood glucose levels were measured using (Contour next USB Blood glucose meter, BAYER, Basel, Switzerland). On the fifth day of the experiment the mice were anesthesized with isofluorane and blood was extracted by cardiac puncture. The blood was collected in tubes containing EDTA or heparin. Plasma samples were obtained by centrifugation and stored at -80°C. After obtaining the samples, the animals were sacrificed by cervical dislocation and subsequently different organs such as white adipose tissue (WAT) and liver were extracted for additional studies. The organs were weighed and frozen for subsequent RNA analysis and to conduct histological studies
# The weight gain at the end of treatment was calculated (d5-d0) (Figure 14A).
# ob/ob mice = assay: Treatment of ob/ob mice: blood glucose; assay type: in vivo
# MCP-1 = assay: Treatment of ob/ob mice: MCP-1 mRNA in WAT by real-time PCR; assay type: in vivo; details: oral, 30 mg/Kg/d, 4 days
# Experimental: 6 animals were used in each group in independent experiments (n=6).
# The total RNA was extracted from mouse WAT by homogenization. Reverse transcription was performed with 1000 ng of total RNA using the inverse transcription kit TaqMan (Applied Biosystems, Thermo Fisher Scientific, Waltham, MA) and converted to cDNA by standard methods. The cDNA was amplified with specific feeders for the mouse monocytic chemoattractant protein 1 (MCP-1 or CCL2, Mm00441242_m1) in a Real Time PCR 7900HT apparatus (Applied Biosystems, Thermo Fisher Scientific, Waltham, MA) using Universal Master Mix (Applied Biosystems, Thermo Fisher Scientific, Waltham, MA). All feeders were designed by Applied Biosystems. The relative quantification of the various transcriptions was determined by the 2^-ΔΔCt method using GAPDH (Applied Biosystems, Thermo Fisher Scientific, Waltham, MA) as endogenous and normalized control for the control group.
# [3] = system: white adipose tissue (WAT); assay: Treatment of ob/ob mice: white adipose tissue weight, histology and F4/80 immunohistochemistry; assay type: in vivo; details: oral, 4 days
# Excerpt: […]. […] […].
# The samples of epididymal white adipose tissue (WAT) and liver were fixed in 4% paraformaldehyde, embedded in paraffin, sectioned with a microtome (Leica RM2245, Leica Biosystems, Wetzlar, Germany) and mounted in microscope slides Superfrost® plus (Thermo Fisher Scientific, Waltham, MA). Cross sections of WAT and liver were obtained. At least 10 slides were examined containing ≈ 4 cross sections of tissue (5 µm thickness) of each animal. Hematoxilin and eosin (H&E) staining was performed of the WAT and liver. Inflammatory infiltration in WAT was measured as previously described (Toyoda et al., 2008). After inactivation of the peroxidase (3% H2O2) and blocking with goat serum (Abcam, Cambridge, UK), cross sections of WAT were incubated overnight (4°C) with the following primary (mAb) monoclonal antibody: a rabbit anti-mouse F4/80 mAb (dilution 1:100, Abcam, Cambridge, UK). A specific marking was detected with a secondary goat HRP-conjugated anti-rabbit antibody (dilution 1:500, Dako, Copenhagen, Denmark). To confirm the specificity of the antibodies, control antibodies with the same isotope (Abcam, Cambridge, UK) or secondary antibody were used only as negative controls. […] Five fields of each WAT tissue section were photographed (Axio Observer A1, Carl Zeiss microscope, Thornwood, NY) digitalized and analyzed (Imaged software 1.48V, Bethesda, […]). Quantification was performed double blind with codes.
Structure (SMILES),RXRα/PPARγ interaction (RXRα/PPARγ interaction),"inhibitory response on mononuclear cell adhesion after PPARα silencing ([1]; PPARα siRNA HUVEC, polycerasoidol 10 µM, rosiglitazone 1 µM)","inhibitory response on mononuclear cell adhesion in HUVEC deficient in PPARγ ([1]; PPARγ siRNA HUVEC, 10 µM)","inhibitory effect on mononuclear cell adhesion after RXRα silencing ([1]; RXRα specific siRNA HUVEC, 10 µM)","TNFα-induced adhesion of mononuclear cells ([1]; control siRNA transfected HUVEC, polycerasoidol 10 µM, rosiglitazone 1 µM)",Weight gain (d5-d0) ([2]; 30 mg/Kg/d) [g],Feed efficiency (ratio of weight gain and food consumed) [2],weight gain compared to the control group ([2]; doses of 10 and 30 mg/Kg/d),"glucose blood level, day 0 (before treatment) (ob/ob mice; group given 30 mg/Kg/d) [mg/dL]","glucose blood level after 4 days (ob/ob mice; oral, 30 mg/Kg/d) [mg/dL]","decrease in glucose blood levels compared to day 0 (ob/ob mice; oral, 30 mg/Kg/d, after 4 days) [%]",expression of MCP-1 in WAT (MCP-1),number of macrophages (F4/80) in WAT ([3]; 30 mg/Kg/d),weight of epididymal white adipose tissue (WAT) compared to the control group [3],"mean area of the adipocytes in WAT ([3]; compound 9 10 and 30 mg/Kg/d (dose-dependent), rosiglitazone 10 mg/Kg/d)"
"C/C(=C\CCC1(C)CCc2cc(O)cc(C)c2O1)CC/C=C(\C)C(=O)O (stereo not drawn) [Polycerasoidol, 1, polycerasoidol]",increased RXRα/PPARγ interaction,not affected,annulled,completely suppressed,inhibited,,,,,,,,,,
CCOC(=O)CCC(C)=CCCC1(C)CCc2cc(OCc3ccc(F)cc3)ccc2O1 (stereo not drawn) [Compound 9],,,,,,1.88 ± 0.52,no observable differences,did not cause significant differences,261,194,20,significantly reduced,significantly reduce,did not significantly increase,significant decrease
